Results on 18 compounds are retold here after US9925153B2, “Therapeutic agents for skin diseases and conditions” (STC.UNM, priority 2013, dated 2018).

“Also recorded” adds a separate entry of the source. Where two headings read alike, the source gives them in different places.

For assay [1], the system named is NF-κB. Nature of the assay: Inhibition of TNFα-induced activation of NF-κB, 293T/NF-κB-luc luciferase reporter cells. The class given is cell-based, human. The following applies: for Activity as inhibitor of TNFα-induced activation of NF-κB in the screen, in words: screened at 15 μM, compared to resveratrol; for IC50: Homo sapiens, HEK-293T. Here is the method:
The cells were maintained in Dulbecco's Modified Eagle's Medium (DMEM—high glucose containing 4 mM glutamine) supplemented with 10% fetal bovine serum (FBS), 1 mM sodium pyruvate, 100 units/ml penicillin, 100 μg/ml streptomycin and 100 μg/ml hygromycin (Gibco/Invitrogen, Carlsbad, Calif.) to maintain cell selection. […] The following day cells were fed fresh media 1 hour prior to treatment. […] Plate wells were gently washed with phosphate buffered saline, pH 7.4, and lysed with 1× passive lysis buffer (Promega, Madison, Wis.). The subsequent lysates were analyzed with the Luciferase Assay System (Promega) utilizing a TD-20/20 luminometer (Turner Designs, Sunnyvale, Calif.). The firefly luciferase relative light units were normalized to protein (mg/ml) with BCA™ Protein Assay Kit (Pierce, Rockford, Ill.) and standardized to percent of control (TNFα control).

The nature of assay [2]: Treatment of cats with inflammatory skin conditions with LD55. In kind it is in vivo, cat. To be noted: for outcome: Feline. From the text: (§1) Table 3 summarizes the results from consecutive treatment with LD55 of dogs and cats with inflammatory skin conditions, where LD55 was applied as a 1% lotion.
The nature of assay [3]: TRAP anti-oxidant assay (quenching of ABTS radical cation). An excerpt: (§2) The total radical-trapping anti-oxidant parameter assay (TRAP assay) measures the ability of an analog to react with the pre-formed radical monocation of 2,2′-azinobis-(3-ethylbenzothiazoline-6-sulfonic acid) (ABTS.^+). The ferric reducing/anti-oxidant power assay (FRAP assay) measures the ability of an analog to reduce a ferric tripyridyltriazine complex.
(§3) In both colorimetric assays, the vitamin E analog Trolox was used as a control.
(§4) The anti-oxidant activities of certain stilbene analogs according to the present invention were determined using two standard assays. See, Schlesier, et al., Free Rad Res. 2002; 36:177-187. The total radical-trapping anti-oxidant parameter assay (TRAP assay) measures the ability of an analog to react with the pre-formed radical monocation of 2,2′-azinobis-(3-ethylbenzothiazoline-6-sulfonic acid) (ABTS.^+). See, Re, et al., Free Rad Biol Med, 26:1231-1237 (1999). […] The activities of curcumin and analogs were determined by their abilities to quench the color of the radical cation. […] The ferric complex of 2,4,6-tripyridyl-s-triazine was prepared at acidic pH, and the anti-oxidant activities of curcumin and analogs were determined by their abilities to reduce the ferric complex to the ferrous complex, monitored by formation of the ferrous complex at 593 nm. […]

The nature of assay [4]: FRAP anti-oxidant assay (reduction of ferric tripyridyltriazine complex).
From the text: as §2, §3, §4

Assay [5] has as its system COX-2 mRNA. Kind of assay: Inhibition of LPS-induced COX-2 mRNA expression in BV-2 microglial cells (qRT-PCR). The class given is cell-based, mouse. The following applies: BV-2 cells, LPS 0.2 μg/ml, 24 hours; for Inhibition of LPS-induced COX-2 mRNA, in words: 0.15 μM.
A short description of assay [6]: Treatment of dogs with inflammatory skin conditions with LD55. In kind it is in vivo, dog.
From the text: as §1

For assay [7] the following is noted: transgenic model of Alzheimer's disease (ref. 10); cited from earlier work.
In assay [8] the test system is AP-1. Nature of the assay: Inhibition of TPA-induced activation of AP-1, 293T/AP-1-luc luciferase reporter cells. In kind it is cell-based, human. The following applies: for IC50: Homo sapiens. The procedure:
An AP-1 reporter stable cell line derived from human 293T embryonic kidney cells transfected with a luciferase reporter construct containing three AP-1 binding sites in the promoter (293T/AP-1-luc, Panomics, Inc., Redwood City, Calif.) was grown in a humidified atmosphere at 37° C. in 5% CO2/95% air. The cells were maintained in Dulbecco's Modified Eagle's Medium (DMEM—high glucose containing 4 mM glutamine) supplemented with 10% fetal bovine serum (FBS), 1 mM sodium pyruvate, 100 units/ml penicillin, 100 μg/ml streptomycin and 100 μg/ml hygromycin (Gibco/Invitrogen, Carlsbad, Calif.) to maintain cell selection. One day prior to treatment, the 293T/AP-1-luc cells were plated into 24-well cell culture plates (Costar, Cambridge, Mass.) in the above media without hygromycin. The following day, the cells, which were at approximately 60% confluency, were fed fresh media with or without TPA, 10 ng/ml, (Calbiochem) and immediately treated with curcumin or analog prepared in DMSO stock solutions. The cells were placed again in a humidified atmosphere at 37° C. in 5% CO2/95% air for 24 hours. Plate wells were gently washed with phosphate buffered saline, pH 7.4, and lysed with Ix passive lysis buffer (Promega, Madison, Wis.). The subsequent lysates were analyzed with the Luciferase Assay System (Promega) utilizing a TD-20/20 luminometer (Turner Designs, Sunnyvale, Calif.). The firefly luciferase relative light units were normalized to protein (mg/ml) with BCA Protein Assay Kit (Pierce, Rockford, Ill.) and standardized to percent of control (TPA control).

In assay [9] the test system is NF-κB. To be noted: literature (ref. 35); cited from earlier work.
[10] abbreviates: 7 h, 293T/NF-κB-luc cells, TNFα 20 ng/ml, 7 hours, triplicate, read-out: IC50 for inhibition of the TNFα-induced activation of NFκB.

As for `COc1ccc(/C=C/c2ccc(OC)cc2)cc1` [6b, (E)-4,4′-Dimethoxystilbene], the “Activity as inhibitor of TNFα-induced activation of NF-κB in the screen, in words” value (from here on “Activity as inhibitor”) in [1] is recorded as “retained very little activity”.

Turning to `COc1ccc(/C=C/c2ccccc2F)cc1` [6p, (E)-2-Fluoro-4′-methoxystilbene], the outcome was “positive” in [2] (atopy/ears, 1% lotion); “positive” in [2] (squamous cell carcinoma, 1% lotion); “positive” in [6] (K9, Pempigus, 1% lotion); “positive” in assay [6] (K9, atopy, 1% lotion); “positive” in assay [6] (K9, hemangiosarcoma, 1% lotion); “positive” in assay [6] (K9, hot spot, 1% lotion). Also, the outcome in assay [6] (K9, peri-analfistual, 1% lotion) is recorded as “positive”. The “Time for redness to disappear” value in [2] (animal 255, severe allergies, ears and face, applied twice a day) was ≤ 24 h. Moreover, the “Inflammatory component of pathology (redness/itching, discomfort)” value in assay [2] (cats, 1% lotion) is “marked improvement”; in assay [6] (dogs, 1% lotion, all treated animals except two dogs with unknown outcome), “marked improvement”. In assay [3], the “Anti-oxidant activity in the TRAP assay, in words” value is given as “does not exhibit anti-oxidant activity”. Also, the “Anti-oxidant activity in the FRAP assay, in words” value in assay [4] is “does not exhibit anti-oxidant activity”. In addition, the “Inhibition of LPS-induced COX-2 mRNA, in words” value in assay [5] was “almost as effective as 4 μM resveratrol”. Also, in assay [6] (animal 1139, daily application, after 10 applications), the “Nasal planum lesion after treatment” value is “the region was healing, the dried, flaking skin was gone and there was no bleeding”. For the same compound, the Peri-anal fistula healing entry in assay [6] (animal 3688, LD55 with combinations of standard forms of treatment, two weeks) was “nearly resulted in the fistula healing and closing”. In addition, the IC50 in assay [1] (setting [10]) came out at 150 nM. In assay [7], the “Ability to prevent brain inflammation and plaque accumulation” value is “effective”.

Turning to `CN(C)c1ccc(/C=C/c2ccccc2)cc1` [4cc, (E)-4-N,N-Dimethylaminostilbene], the “Anti-oxidant activity in the TRAP assay, in words” value in assay [3] is reported as “retained anti-oxidant activity; also recorded: exhibits anti-oxidant activity”. For the same compound, the “Anti-oxidant activity in the FRAP assay, in words” value in [4] is “retained anti-oxidant activity; also recorded: exhibits anti-oxidant activity”. For the same compound, the “Inhibition of LPS-induced COX-2 mRNA, in words” value in assay [5] is recorded as “almost as effective as 4 μM resveratrol”. For the same compound, in assay [1] (setting [10]), the IC50 worked out at 150 nM.

As to `COc1ccc(/C=C/c2cccc(OC)c2)cc1` [6r, (E)-3,4′-Dimethoxystilbene], the IC50 in [1] (setting [10]) turned out to be 600 ± 100 nM. Moreover, the “Activity as inhibitor” value in [1] was “especially active; also recorded: highly active”.

Regarding `O=C(/C=C/c1ccncc1)/C=C/c1ccncc1` [reference compound], the IC50 is 3900 ± 300 nM in [1] (TNFα-induced activation of NF-κB, Panomics reporter screening cells, read-out: NFκB IC50 (Tables 1A and 2A)); 8200 ± 300 nM in [8] (AP1, TPA-induced activation of AP-1, Panomics reporter screening cells, read-out: AP-1 IC50 (Tables 1A and 2A)).

In the case of `COc1ccc(/C=C/c2ccc(C)cc2)cc1` [6d, (E)-4′-Methoxy-4-methylstilbene], the half-inhibitory concentration (IC50) in [1] (setting [10]) was found to be 900 ± 100 nM.

With `COc1ccc(/C=C/c2cccc(C)c2)cc1` [6i, (E)-4′-Methoxy-3-methylstilbene], the IC50 in assay [1] (setting [10]) was found to be 800 ± 200 nM.

Consider `COc1ccc(/C=C/c2ccccc2)cc1` [4b, (E)-4-Methoxystilbene], for which, in assay [1], the “Activity as inhibitor” value is listed as “especially active”.

On to `COc1ccc(/C=C/c2cccc(Cl)c2)cc1` [6h, (E)-3-Chloro-4′-methoxystilbene], for which the IC50 in assay [1] (setting [10]) worked out at 1000 ± 100 nM.

For the compound `C(=Cc1ccccc1)c1ccccc1` [stilbene], in [9], the “Inhibition of TNF-induced activation of NF-κB” value was “inactive”.

`COc1ccc(/C=C/c2ccccc2Cl)cc1` [6j, (E)-2-Chloro-4′-methoxystilbene]: the concentration for half-maximal inhibition (IC50) in assay [1] (setting [10]) was 1500 ± 30 nM.

On to `COc1ccc(/C=C/c2ccccc2)c(OC)c1` [4u, (E)-2,4-Dimethoxystilbene], for which the “Activity as inhibitor” value in assay [1] is reported as “especially active”.

As for `COc1ccc(/C=C/c2cc(OC)cc(OC)c2)cc1` [6f, (E)-3,4′,5-Trimethoxystilbene], the “Activity as inhibitor” value in [1] was “especially active”. For the same compound, the IC50 in [8] (24 h, read-out: IC50 for inhibition of the TPA-induced activation of AP-1) worked out at 3800 ± 1100 nM.

As for `COc1cccc(/C=C/c2ccccc2)c1OC` [4o, (E)-2,3-Dimethoxystilbene], the “Activity as inhibitor” value in [1] is reported as “retained very little activity”.

For `Oc1ccc(/C=C/c2cc(O)cc(O)c2)cc1` [resveratrol, 3,4′,5-trihydroxystilbene, reference compound], the “Inhibition of LPS-induced COX-2 mRNA” value in assay [5] (4 μM) is “about 50%”. Besides, the “Suppression of LPS-induced COX-2 mRNA” value in assay [5] (20 μM) is on record as “markedly suppressed”. In [1] (setting [10]), the IC50 worked out at 20000 ± 3000 nM. Besides, the “Effect on TPA-induced AP-1 activation, in words” value in assay [8] (293T/AP-1-luc cells, TPA 10 ng/ml, 24 hours) is reported as “activated”.

Regarding `COc1ccc(/C=C/c2ccc(O)c(O)c2)cc1` [6x, (E)-3,4-Dihydroxy-4′-methoxystilbene], in assay [1] (setting [10]), the 50% inhibitory concentration (IC50) amounted to 600 ± 400 nM. The “Activity as inhibitor” value in assay [1] is recorded as “considerably more active than resveratrol”.

Regarding `COc1ccc(/C=C/c2cccc(OC)c2OC)cc1` [6o, (E)-2,3,4′-Trimethoxystilbene], the “Activity as inhibitor” value in [1] is “especially active”.

For the compound `COc1ccc(/C=C/c2ccccc2)cc1O` [4s, (E)-3-Hydroxy-4-methoxystilbene], the “Activity as inhibitor” value in assay [1] was “considerably more active than resveratrol”.
